# From publication PMC10953043, “Fluorogenic Granzyme A Substrates Enable Real‐Time Imaging of Adaptive Immune Cell Activity” (Angewandte Chemie (Weinheim an Der Bergstrasse, Germany), 2023)
# Molecular target: T1, human GzmA (hGzmA), active recombinant (Homo sapiens, UniProt P12544)
# T1 construct: active recombinant enzyme (not the pro-form), dimeric
# T1 sequence (P12544 29-262): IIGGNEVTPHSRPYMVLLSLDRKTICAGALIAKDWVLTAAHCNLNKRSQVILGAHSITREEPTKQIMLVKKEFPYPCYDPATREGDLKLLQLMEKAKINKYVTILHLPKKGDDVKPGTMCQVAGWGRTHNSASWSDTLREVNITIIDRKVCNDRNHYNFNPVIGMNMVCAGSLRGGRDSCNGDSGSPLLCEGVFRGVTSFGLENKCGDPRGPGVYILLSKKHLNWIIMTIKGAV
# Assay: fluorogenic assay with compound […] as substrate
# Type: biochemical
# Conditions: 100 μM inhibitor, 20 μM compound 9, 20 nM hGzmA, Tris buffer pH 8; covalent
structure (smiles),measurement,value
"O=c1oc(Cl)c(Cl)c2ccccc12 [3,4‐dichloroisocoumarin]",% decrease of the fluorescence signal,> 90%
